Molecules are shown by their SMILES. Activity calls are given as the source filed them. Where only a bound is given, the exact number is not on record here.

Assay [1] is described as follows: cells. The format is functional, cell-based.
Assay [2] can be described thus: cells. The format is functional, cell-based. This is another data set of the same source.
A further assay deals with INS1. In words: beta cell apoptosis inhibitors, cytokine rescue, dose response, luminescence, retest (AID 449756).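 Further: cell death triggered by IL-1 beta plus TNF-alpha plus IFN-gamma mixture; protective hits raise ATP signal compared with cytokine alone wells.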 In kind it is functional, cell-based. Particulars: Rattus norvegicus.
Assay [3] is described as follows: human group III sPLA2 inhibitors, dose response, biochemical, QFRET, IC50 (AID 743457).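 Further: green fluorescence rise as the enzyme cleaves BODIPY PC-A2 in liposomes; potency for inhibition of the enzyme.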
The target in assay [4] is Fructose-bisphosphate aldolase (Mycobacterium tuberculosis, UniProt P9WQA3). Kind of assay: Fluorescence-based biochemical high throughput dose response assay for inhibitors of the fructose-bisphosphate aldolase (FBA) of M. tuberculosis. The format is functional.
Chain of Fructose-bisphosphate aldolase (P9WQA3 whole entry): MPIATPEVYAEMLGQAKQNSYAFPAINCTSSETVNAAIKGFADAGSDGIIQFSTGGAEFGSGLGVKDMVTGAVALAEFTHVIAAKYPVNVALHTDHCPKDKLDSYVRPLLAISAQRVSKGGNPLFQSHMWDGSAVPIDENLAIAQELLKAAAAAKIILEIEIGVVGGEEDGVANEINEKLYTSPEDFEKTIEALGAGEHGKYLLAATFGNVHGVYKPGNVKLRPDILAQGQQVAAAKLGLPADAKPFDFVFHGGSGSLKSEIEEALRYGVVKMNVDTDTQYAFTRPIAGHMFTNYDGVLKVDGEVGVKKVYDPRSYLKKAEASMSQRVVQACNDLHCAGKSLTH
Assay [5] is described as follows: A549 cell cytotoxicity, dose response, cytotoxicity control, plate reader, cherry-pick, antagonist series (AID 743412). The format is functional, cell-based.
Assay [6] in a line: HepG2 cell cytotoxicity, dose response, cytotoxicity control, plate reader, cherry-pick, antagonist series (AID 743416). In kind it is functional, cell-based.
Assay [7] in a line: HEK293 cell cytotoxicity, dose response, cytotoxicity control, plate reader, cherry-picked samples (AID 743446). The format is functional, cell-based.
Another assay deals with HeLa. In words: HeLa cell cytotoxicity, dose response, cytotoxicity control, ATP luminescence, cherry-pick samples (AID 687004). The format is functional, cell-based. As to conditions: Homo sapiens.
In the next assay the test system is HEK293. Kind of assay: HEK293T cell cytotoxicity, dose response, cytotoxicity control, ATP luminescence, cherry-pick samples (AID 687005).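 Further: cells exposed to compound for 48 hours.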 As to conditions: Homo sapiens. The format is functional, cell-based.
Assay [8] is described as follows: HEK293 Cytotoxicity Assay Measured in Cell-Based System Using Plate Reader - 7071-01_Inhibitor_Dose_CherryPick_Activity_Set2. In kind it is functional.
The test system of a further assay is Cryptococcus neoformans. Kind of assay: PubChem AID 686997. In kind it is functional, organism-based.
A short description of assay [9]: HEK293T cytotoxicity, dose response, cytotoxicity control for miR-122 modulator project, cell-based, inhibitor set, cherry-pick, set 2 (AID 720697). In kind it is functional.
Assay [10] can be described thus: T. cruzi growth inhibition in host cells, dose response, cell-based, plate reader, dry powder, set 2 (AID 652275). In kind it is functional.
Another assay addresses Galanin receptor type 3 (Homo sapiens, UniProt O60755). Kind of assay: Fluorescence-based cell-based primary high throughput dose response assay to identify antagonists of the Galanin Receptor 3 (GalR3). The format is functional.
Another assay addresses Paired box protein Pax-8 (Homo sapiens, UniProt Q06710). In words: inhibitors of PAX8-driven TPO luciferase reporter, dose response, RMG-I cells, cherry-pick (AID 687027).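 Further: luciferase reporter driven by Pax8 target thyroperoxidase promoter measured by SteadyGlo luminescence.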 In kind it is functional, cell-based. For orientation: In a reporter assay the amount or activity of a reporter protein is the signal.
Assay [11] in a line: non-specific cell cytotoxicity, dose response, cytotoxicity control for PAX8 inhibitor project, plate reader, dry powder samples (AID 743021). The format is functional, cell-based.

Chain of Galanin receptor type 3 (O60755 whole entry): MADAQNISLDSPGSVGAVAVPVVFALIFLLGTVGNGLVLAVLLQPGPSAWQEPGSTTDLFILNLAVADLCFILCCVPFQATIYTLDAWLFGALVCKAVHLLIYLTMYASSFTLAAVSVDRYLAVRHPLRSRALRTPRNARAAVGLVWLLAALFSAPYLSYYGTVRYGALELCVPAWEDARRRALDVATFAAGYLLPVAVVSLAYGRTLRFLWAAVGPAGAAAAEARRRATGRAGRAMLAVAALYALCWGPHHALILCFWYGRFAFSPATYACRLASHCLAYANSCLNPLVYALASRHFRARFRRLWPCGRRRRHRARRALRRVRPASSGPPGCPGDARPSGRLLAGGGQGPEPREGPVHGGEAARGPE
Chain of Paired box protein Pax-8 (Q06710 whole entry): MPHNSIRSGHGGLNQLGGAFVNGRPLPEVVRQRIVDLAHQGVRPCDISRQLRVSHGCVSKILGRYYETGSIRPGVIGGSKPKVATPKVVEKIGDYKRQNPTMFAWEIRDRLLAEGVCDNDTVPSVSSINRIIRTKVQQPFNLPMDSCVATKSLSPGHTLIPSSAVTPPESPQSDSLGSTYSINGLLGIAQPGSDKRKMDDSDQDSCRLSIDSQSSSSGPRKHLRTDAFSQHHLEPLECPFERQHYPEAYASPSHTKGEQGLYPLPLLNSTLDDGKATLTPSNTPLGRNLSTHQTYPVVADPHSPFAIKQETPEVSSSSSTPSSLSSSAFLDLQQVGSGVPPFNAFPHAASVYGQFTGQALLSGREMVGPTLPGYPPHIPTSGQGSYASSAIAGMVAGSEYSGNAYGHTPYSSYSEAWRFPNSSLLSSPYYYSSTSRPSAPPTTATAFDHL

What is called EC50 is the concentration giving half of the maximal effect. For orientation: AC50 means the midpoint of the concentration-response curve, whichever way the signal moves. A word on the IC50: it is the point on the concentration scale where inhibition reaches its midpoint. As to `CCOC(=O)N1CCN(S(=O)(=O)c2ccc(C(=O)NNc3nc4c(C)cc(C)cc4s3)cc2)CC1`, the half-maximal effective concentration (EC50) in “cells [1]” is 14.5 µM (active); in “cells [2]”, > 350 µM (not active). In the assay with INS1, the AC50 was 4.46 µM (active). Also, the IC50 in assay [3] is 24.6 µM (inactive).

As to `CCc1c(C)c2ccc(OCC(N)=O)cc2oc1=O`, in [4], the IC50 was > 0.37 µM (active).

`COc1ccc(S(=O)(=O)N2CCOCC2)cc1NC(=O)COc1ccc(C)cc1`: the half-maximal activity concentration (AC50) in [5] is 8.06 µM (active); in assay [6], 8.95 µM (active); in assay [7], 28.1 µM (active).

For `C[C@@H]1CN([C@H](C)CO)C(=O)c2c(c3ccccc3n2C)-c2ccccc2CO[C@H]1CN(C)S(=O)(=O)c1ccc(Cl)cc1`, the AC50 is > 47 µM (inactive) in the assay with HeLa, 23.1 µM (active) with HEK293 and 23.1 µM (active) in assay [8].

On to `COC(=O)C1=C(C)N(Cc2ccc(F)cc2)C(=S)NC1c1ccccc1` (configuration not stated), for which, in the assay on Cryptococcus neoformans, the AC50 is > 76 µM (inactive).

`CCCC(=O)Nc1ccc2c(c1)C(=O)N(C)[C@@H]1CC[C@H](CC(=O)NCC(F)(F)F)O[C@H]1CO2`: the AC50 in assay [9] was 2.15 µM (active).

Consider `CN1CCCCN2[C@@H](CO)[C@H](c3ccc(Br)cc3)[C@@H]2C1`, for which the AC50 in assay [10] is 16 µM (active).

As to `NC(=O)c1cn(C2OC(CO)C(O)C2O)c2ncnc(N)c12` (configuration not stated), the IC50 at Galanin receptor type 3 was 1.28 µM (active). Moreover, the values for the concentration at half-maximal activity (AC50) (at Paired box protein Pax-8; in assay [11]) were < 0.26 µM (active) and 0.591 µM (active), respectively.
